Each compound was assayed on HIV-1 (IIIB) in MT-4 cells (assay: MT-4 HIV assay). Settings: Human immunodeficiency virus 1, MT4, 120 h; HIV-1 (IIIB), MT-4 cells, 5 days, Cell Titer Glo; read-out: EC50.
Assay type: cell-based
Description: Compounds were tested in a high-throughput 384-well assay format for their ability to inhibit the replication of HIV-1 (IIIB) in MT-4 cells. Compounds were serially diluted (1:3) in DMSO on 384-well polypropylene plates and further diluted 200-fold into complete RPMI media (10% FBS, 1% P/S) using the Biotek Micro Flow and Agilent ECHO acoustic dispenser. Each plate contained up to 8 test compounds, with negative (No Drug Control) and 5 uM AZT positive controls. MT-4 cells were pre-infected with 10 uL of either RPMI (mock-infected) or a fresh 1:250 dilution of an HIV-1 (IIIB) concentrated virus stock. Infected and uninfected MT-4 cells were further diluted in complete RPMI media and added to each plate using a Micro Flow dispenser. After 5 days incubation in a humidified and temperature controlled incubator (37° C.), Cell Titer Glo (Promega) was added to the assay plates to quantify the amount of luciferase.

SMILES	EC50 [nM]
COC(=O)N[C@H](C(=O)N[C@@H](Cc1ccc(C#Cc2ccc(N3CCN(C4COC4)CC3)nc2)cc1)[C@@H](O)CN(Cc1ccc(-c2cnn(C(F)F)c2)cc1)NC(=O)[C@@H](NC(=O)OC)C(C)(C)C(F)(F)F)C(C)(C)C(F)(F)F [Example 113, Methyl ((5S,8S,9S,14S)-11-(4-(1-(difluoromethyl)-1H-pyrazol-4-yl)benzyl)-16,16,16-trifluoro-9-hydroxy-15,15-dimethyl-8-(4-((6-(4-(oxetan-3-yl)piperazin-1-yl)pyridin-3-yl)ethynyl)benzyl)-3,6,13-trioxo-5-(1,1,1-trifluoro-2-methylpropan-2-yl)-2-oxa-4,7,11,12-tetraazahexadecan-14-yl)carbamate]	6.01
COC(=O)N[C@H](C(=O)NN(Cc1c(F)cc(-c2ccn(C3CC3)n2)cc1F)C[C@H](O)[C@H](Cc1ccc(C#Cc2ccc(N3CC4CCC(C3)N4C3COC3)nc2)cc1)NC(=O)[C@@H](NC(=O)OC)C(C)(C)C(F)(F)F)C(C)(C)C [Example 5, methyl ((5S,8S,9S,14S)-11-(4-(1-cyclopropyl-1H-pyrazol-3-yl)-2,6-difluorobenzyl)-9-hydroxy-15,15-dimethyl-8-(4-((6-(8-(oxetan-3-yl)-3,8-diazabicyclo[3.2.1]octan-3-yl)pyridin-3-yl)ethynyl)benzyl)-3,6,13-trioxo-5-(1,1,1-trifluoro-2-methylpropan-2-yl)-2-oxa-4,7,11,12-tetraazahexadecan-14-yl)carbamate]	4.37
CCN1C2CCC1CN(c1ccc(C#Cc3ccc(C[C@H](NC(=O)[C@@H](NC(=O)OC)C(C)(C)C(F)(F)F)[C@@H](O)CN(Cc4c(F)cc(-c5ccccn5)cc4F)NC(=O)[C@@H](NC(=O)OC)C(C)(C)C(F)(F)F)cc3)cn1)C2 [Example 241, methyl ((5S,8S,9S,14S)-11-(2,6-difluoro-4-(pyridin-2-yl)benzyl)-8-(4-((6-(8-ethyl-3,8-diazabicyclo[3.2.1]octan-3-yl)pyridin-3-yl)ethynyl)benzyl)-16,16,16-trifluoro-9-hydroxy-15,15-dimethyl-3,6,13-trioxo-5-(1,1,1-trifluoro-2-methylpropan-2-yl)-2-oxa-4,7,11,12-tetraazahexadecan-14-yl)carbamate]	6.57
COC(=O)N[C@H](C(=O)N[C@@H](Cc1ccc(C#Cc2ccc(N3CC4CCC(C3)N4C(=O)C3(C)COC3)nc2)cc1)[C@@H](O)CN(Cc1c(F)cc(-c2ccn(C)n2)cc1F)NC(=O)[C@@H](NC(=O)OC)C(C)(C)C)C(C)(C)C [Example 4]	2.82
CCC(=O)N[C@H](C(=O)N[C@@H](Cc1ccc(-c2cnn(C(F)F)c2)cc1)[C@@H](O)CN(Cc1c(F)cc(-c2cnn(C(F)F)c2)cc1F)NC(=O)[C@@H](NC(=O)CC)C(C)(C)C(F)(F)F)C(C)(C)C(F)(F)F [Example 215, (S)—N-((2S,3S)-4-(1-(4-(1-(difluoromethyl)-1H-pyrazol-4-yl)-2,6-difluorobenzyl)-2-((S)-4,4,4-trifluoro-3,3-dimethyl-2-propionamidobutanoyl)hydrazinyl)-1-(4-(1-(difluoromethyl)-1H-pyrazol-4-yl)phenyl)-3-hydroxybutan-2-yl)-4,4,4-trifluoro-3,3-dimethyl-2-propionamidobutanamide]	18.2
COC(=O)N[C@H](C(=O)N[C@@H](Cc1ccc(C#Cc2ccc(N3CC4CCC(C3)N4C3COC3)nc2)cc1)[C@@H](O)CN(Cc1ccc(-c2ccccn2)cc1Cl)NC(=O)[C@@H](NC(=O)OC)C(C)(C)C(F)(F)F)C(C)(C)C(F)(F)F [Example 148, Methyl ((5S,8S,9S,14S)-11l-(2-chloro-4-(pyridin-2-yl)benzyl)-16,16,16-trifluoro-9-hydroxy-15,15-dimethyl-8-(4-((6-(8-(oxetan-3-yl)-3,8-diazabicyclo[3.2.1]octan-3-yl)pyridin-3-yl)ethynyl)benzyl)-3,6,13-trioxo-5-(1,1,1-trifluoro-2-methylpropan-2-yl)-2-oxa-4,7,11,12-tetraazahexadecan-14-yl)carbamate]	6.95
COC(=O)N[C@H](C(=O)N[C@@H](Cc1ccc(C#Cc2ccc(N3CC4CCC(C3)N4C3COC3)nc2)cc1)[C@@H](O)CN(Cc1c(Cl)cc(-c2ccccn2)cc1Cl)NC(=O)[C@@H](NC(=O)OC)C(C)(C)C(F)(F)F)C(C)(C)C(F)(F)F [Example 149, Methyl ((5S,8S,9S,14S)-11-(2,6-dichloro-4-(pyridin-2-yl)benzyl)-16,16,16-trifluoro-9-hydroxy-15,15-dimethyl-8-(4-((6-(8-(oxetan-3-yl)-3,8-diazabicyclo[3.2.1]octan-3-yl)pyridin-3-yl)ethynyl)benzyl)-3,6,13-trioxo-5-(1,1,1-trifluoro-2-methylpropan-2-yl)-2-oxa-4,7,11,12-tetraazahexadecan-14-yl)carbamate]	8.3
COC(=O)N[C@H](C(=O)N[C@@H](Cc1ccc(-c2ccc(N3CC4CC(C3)N4C3COC3)nc2)cc1)[C@@H](O)CN(Cc1c(F)cc(-c2ccn(C(F)F)n2)cc1F)NC(=O)[C@@H](NC(=O)OC)C(C)(C)C(F)(F)F)C(C)(C)C(F)(F)F [Example 202, Methyl ((5S,8S,9S,14S)-11-(4-(1-(difluoromethyl)-1H-pyrazol-3-yl)-2,6-difluorobenzyl)-16,16,16-trifluoro-9-hydroxy-15,15-dimethyl-8-(4-(6-(6-(oxetan-3-yl)-3,6-diazabicyclo[3.1.1]heptan-3-yl)pyridin-3-yl)benzyl)-3,6,13-trioxo-5-(1,1,1-trifluoro-2-methylpropan-2-yl)-2-oxa-4,7,11,12-tetraazahexadecan-14-yl)carbamate]	9.67
COC(=O)N[C@H](C(=O)N[C@@H](Cc1ccc(C#Cc2cnc(N3CC4CCC(C3)N4)nc2)cc1)[C@@H](O)CN(Cc1c(F)cc(-c2ccn(C(F)F)n2)cc1F)NC(=O)[C@@H](NC(=O)OC)C(C)(C)C(F)(F)F)C(C)(C)C(F)(F)F [Example 172, Methyl ((5S,8S,9S,14S)-8-(4-((2-(3,8-diazabicyclo[3.2.1]octan-3-yl)pyrimidin-5-yl)ethynyl)benzyl)-11-(4-(1-(difluoromethyl)-1H-pyrazol-3-yl)-2,6-difluorobenzyl)-16,16,16-trifluoro-9-hydroxy-15,15-dimethyl-3,6,13-trioxo-5-(1,1,1-trifluoro-2-methylpropan-2-yl)-2-oxa-4,7,11,12-tetraazahexadecan-14-yl)carbamate]	5.86
COC(=O)N[C@H](C(=O)N[C@@H](Cc1ccc(C#Cc2ccc(N3CC4CCC(C3)N4C(C)C)nc2)cc1)[C@@H](O)CN(Cc1c(F)cc(-c2cnn(C(F)F)c2)cc1F)NC(=O)[C@@H](NC(=O)OC)C(C)(C)C(F)(F)F)C(C)(C)C(F)(F)F [Example 166, Methyl ((5S,8S,9S,14S)-11-(4-(1-(difluoromethyl)-1H-pyrazol-4-yl)-2,6-difluorobenzyl)-16,16,16-trifluoro-9-hydroxy-8-(4-((6-(8-isopropyl-3,8-diazabicyclo[3.2.1]octan-3-yl)pyridin-3-yl)ethynyl)benzyl)-15,15-dimethyl-3,6,13-trioxo-5-(1,1,1-trifluoro-2-methylpropan-2-yl)-2-oxa-4,7,11,12-tetraazahexadecan-14-yl)carbamate]	7.06
COC(=O)N[C@H](C(=O)N[C@@H](Cc1ccc(C#Cc2ccc(N3CCN4CCOC[C@@H]4C3)nc2)cc1)[C@@H](O)CN(Cc1c(F)cc(-c2ccn(C(F)F)n2)cc1F)NC(=O)[C@@H](NC(=O)OC)C(C)(C)C(F)(F)F)C(C)(C)C(F)(F)F [Example 55, Methyl ((5S,8S,9S,14S)-11-(4-(1-(difluoromethyl)-1H-pyrazol-3-yl)-2,6-difluorobenzyl)-16,16,16-trifluoro-8-(4-((6-((S)-hexahydropyrazino[2,1-c][1,4]oxazin-8(1H)-yl)pyridin-3-yl)ethynyl)benzyl)-9-hydroxy-15,15-dimethyl-3,6,13-trioxo-5-(1,1,1-trifluoro-2-methylpropan-2-yl)-2-oxa-4,7,11,12-tetraazahexadecan-14-yl)carbamate]	4.44
COC(=O)N[C@H](C(=O)N[C@@H](Cc1ccc(C#Cc2ccc(N3CC4CCC(C3)N4CC(F)F)nc2)cc1)[C@@H](O)CN(Cc1c(F)cc(-c2ccccn2)cc1Cl)NC(=O)[C@@H](NC(=O)OC)C(C)(C)CF)C(C)(C)CF [Example 238, methyl ((5S,8S,9S,14S)-11-(2-chloro-6-fluoro-4-(pyridin-2-yl)benzyl)-8-(4-((6-(8-(2,2-difluoroethyl)-3,8-diazabicyclo[3.2.1]octan-3-yl)pyridin-3-yl)ethynyl)benzyl)-16-fluoro-5-(1-fluoro-2-methylpropan-2-yl)-9-hydroxy-15,15-dimethyl-3,6,13-trioxo-2-oxa-4,7,11,12-tetraazahexadecan-14-yl)carbamate]	12.3
CC(=O)N[C@H](C(=O)N[C@@H](Cc1ccc(-c2cnn(C(F)F)c2)cc1)[C@@H](O)CN(Cc1c(F)cc(-c2cnn(C(F)F)c2)cc1F)NC(=O)[C@@H](NC(C)=O)C(C)(C)C(F)(F)F)C(C)(C)C(F)(F)F [Example 217, (S)-2-acetamido-N-((2S,3S)-4-(2-((S)-2-acetamido-4,4,4-trifluoro-3,3-dimethylbutanoyl)-1-(4-(1-(difluoromethyl)-1H-pyrazol-4-yl)-2,6-difluorobenzyl)hydrazinyl)-1-(4-(1-(difluoromethyl)-1H-pyrazol-4-yl)phenyl)-3-hydroxybutan-2-yl)-4,4,4-trifluoro-3,3-dimethylbutanamide]	113
